Earlier results on four molecules are cited in patent publication US6821979B2, “Synergistic enhancement of cognitive ability” (Blanchette Rockefeller Neurosciences Institute, priority 2002, dated 2004).

Data set [1] concerns carbonic anhydrase. The settings on record: rats; CNS administration.
The subject of data set [2] is carbonic anhydrase. The settings on record: single dose; electroencephalogram during rapid-eye-movement sleep.
The test system of data set [3] is carbonic anhydrase. As to conditions: conscious animals; CNS administration; other sensory and/or locomotor behaviors not affected.
For data set [4] the following is noted: theophylline alone; literature studies.

For the molecule `c1c[nH]cn1` [imidazole], the “ability to learn a water-maze task and to recall the maze from memory” value with carbonic anhydrase [1] is on record as “significantly enhances”.

Regarding `CC(=O)Nc1nnc(S(N)(=O)=O)s1` [acetazolamide], in the data set with carbonic anhydrase [2], the “reduction of magnitudes of θ-wave frequency activity” value is recorded as 50%. Also, the spatial learning result with carbonic anhydrase [3] was “impairs spatial learning”.

In the case of `Cn1c(=O)c2[nH]cnc2n(C)c1=O` [theophylline], the effect on cognition result in data set [4] is given as “insignificant”.

On to `N[C@@H](Cc1ccccc1)C(=O)O` [phenylalanine], for which the “ability to learn a water-maze task and to recall the maze from memory” value in the data set with carbonic anhydrase [1] is “significantly enhances”.
